Molecular target: T1, aurora-A (human) (Homo sapiens, UniProt O14965)
T1 construct: purchased Upstate, Dundee, UK
T1 sequence (O14965 1-403): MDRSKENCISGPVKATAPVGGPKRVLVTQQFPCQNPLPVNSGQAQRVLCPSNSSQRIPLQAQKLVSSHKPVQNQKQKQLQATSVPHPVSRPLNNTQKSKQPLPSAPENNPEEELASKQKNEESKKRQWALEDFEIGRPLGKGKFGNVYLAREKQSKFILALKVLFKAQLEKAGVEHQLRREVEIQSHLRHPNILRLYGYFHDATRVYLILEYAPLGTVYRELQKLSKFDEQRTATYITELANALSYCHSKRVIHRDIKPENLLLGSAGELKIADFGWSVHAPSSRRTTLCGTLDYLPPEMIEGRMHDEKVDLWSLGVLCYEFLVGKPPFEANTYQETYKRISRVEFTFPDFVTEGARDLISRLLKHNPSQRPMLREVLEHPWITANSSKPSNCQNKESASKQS
Assay: Aurora-A (human) kinase assay
Format: biochemical
Conditions: read-out: Activity (Aurora A activity, IC50 grading)
Method: This was achieved by measurement of incorporation of radioactive phosphate from ATP into Kemptide substrate (LRRASLG), upon phosphorylation by commercially obtained aurora-A (human, Upstate; Dundee, UK). Assays were performed using 96-well plates and appropriate assay buffers (20 mM Tris, 25 mM β-glycerophosphate, 5 mM EGTA, 1 mM DTT, 1 mM sodium vanadate, pH 7.5), into which were added 2-5 ng of active enzyme with 500 μM substrate (Kemptide). The reactions were initiated by addition of MATP mix (15 mM MgCl2+100 μM ATP with 15-25 kBq per well of [γ-^32P]-ATP) and mixtures incubated for 30 min at 30° C. Reactions were stopped by addition of an equal volume of 75 mM aq orthophosphoric acid, followed by filtration through p81 filterplates (Whatman Polyfiltronics, Kent, UK). After washing 4 times with 75 mM aq orthophosphoric acid, plates were dried, scintillant added and incorporated radioactivity measured in a scintillation counter (TopCount, Packard Instruments, Pangbourne, Berks, UK). Compounds for kinase assay were made up as 10 mM stocks in DMSO and diluted into 10% DMSO in assay buffer. Data was analysed using curve-fitting software (XLfit version 4.0.2, IDBS, Guildford, Surrey, UK) to determine IC50 values (concentration of test compound which inhibits kinase activity by 50%).

SMILES | IC50
COc1ccc(Nc2nccc(-c3c(C)c4n(c3C)CCNC4=O)n2)cc1 [Example I-4, 7-[2-(4-Methoxy-phenylamino)-pyrimidin-4-yl]-6,8-dimethyl-3,4-dihydro-2H-pyrrolo[1,2-a]pyrazin-1-one] | < 1000 nM
Cc1c(-c2ccnc(Nc3cccc([N+](=O)[O-])c3)n2)c(C)n2c1C(=O)NCC2 [Example I-5, 6,8-Dimethyl-7-[2-(3-nitro-phenylamino)-pyrimidin-4-yl]-3,4-dihydro-2H-pyrrolo[1,2-a]pyrazin-1-one] | < 1000 nM
Cc1c(-c2ccnc(Nc3ccc(N(C)C)cc3)n2)c(C)n2c1C(=O)NCC2 [Example I-6, 7-[2-(4-Dimethylamino-phenylamino)-pyrimidin-4-yl]-6,8-dimethyl-3,4-dihydro-2H-pyrrolo[1,2-a]pyrazin-1-one] | < 1000 nM
CC(=O)N1CCN(c2ccc(Nc3nccc(-c4c(C)c5n(c4C)CCNC5=O)n3)cc2)CC1 [Example I-7, 7-{2-[4-(4-Acetyl-piperazin-1-yl)-phenylamino]-pyrimidin-4-yl}-6,8-dimethyl-3,4-dihydro-2H-pyrrolo[1,2-a]pyrazin-1-one] | < 1000 nM
CC(=O)N1CCN(c2ccc(Nc3nccc(-c4c(C)c5n(c4C)CCNC5=O)n3)cc2C)CC1 [Example I-8, 7-{2-[4-(4-Acetyl-piperazin-1-yl)-3-methyl-phenylamino]-pyrimidin-4-yl}-6,8-dimethyl-3,4-dihydro-2H-pyrrolo[1,2-a]pyrazin-1-one] | < 1000 nM
COc1cc(Nc2nccc(-c3c(C)c4n(c3C)CCNC4=O)n2)ccc1N1CCN(C(C)=O)CC1 [Example I-9, 7-{2-[4-(4-Acetyl-piperazin-1-yl)-3-methoxy-phenylamino]-pyrimidin-4-yl}-6,8-dimethyl-3,4-dihydro-2H-pyrrolo[1,2-a]pyrazin-1-one] | < 1000 nM
Cc1c(-c2ccnc(Nc3ccc4cn[nH]c4c3)n2)c(C)n2c1C(=O)NCC2 [Example I-11, 7-[2-(1H-Indazol-6-ylamino)-pyrimidin-4-yl]-6,8-dimethyl-3,4-dihydro-2H-pyrrolo[1,2-a]pyrazin-1-one] | < 1000 nM
Cc1c(-c2ccnc(Nc3ccc4c(c3)OCC(=O)N4)n2)c(C)n2c1C(=O)NCC2 [Example I-12, 7-[4-(6,8-Dimethyl-1-oxo-1,2,3,4-tetrahydro-pyrrolo[1,2-a]pyrazin-7-yl)-pyrimidin-2-ylamino]-4H-benzo[1,4]oxazin-3-one] | < 1000 nM
CCN(CC)c1ccc(Nc2nccc(-c3c(C)c4n(c3C)CCNC4=O)n2)cc1 [Example I-13, 7-[2-(4-Diethylamino-phenylamino)-pyrimidin-4-yl]-6,8-dimethyl-3,4-dihydro-2H-pyrrolo[1,2-a]pyrazin-1-one] | < 1000 nM
Cc1c(-c2ccnc(Nc3ccc(N4CCOCC4)nc3)n2)c(C)n2c1C(=O)NCC2 [Example I-13a, 6,8-Dimethyl-7-[2-(6-morpholin-4-yl-pyridin-3-ylamino)-pyrimidin-4-yl]-3,4-dihydro-2H-pyrrolo[1,2-a]pyrazin-1-one] | < 1000 nM
COc1ccc(Nc2nccc(-c3c(C)c4n(c3C)CCNC4=O)n2)cn1 [Example I-13b, 7-[2-(6-Methoxy-pyridin-3-ylamino)-pyrimidin-4-yl]-6,8-dimethyl-3,4-dihydro-2H-pyrrolo[1,2-a]pyrazin-1-one] | < 1000 nM
Cc1c(-c2ccnc(Nc3ccc(Br)cc3)n2)c(C)n2c1C(=O)NCC2 [Example I-14, 7-[2-(4-Bromo-phenylamino)-pyrimidin-4-yl]-6,8-dimethyl-3,4-dihydro-2H-pyrrolo[1,2-a]pyrazin-1-one] | < 1000 nM
Cc1c(-c2ccnc(Nc3cccc(S(=O)(=O)CCO)c3)n2)c(C)n2c1C(=O)NCC2 [Example I-15, 7-{2-[3-(2-Hydroxy-ethanesulfonyl)-phenylamino]-pyrimidin-4-yl}-6,8-dimethyl-3,4-dihydro-2H-pyrrolo[1,2-a]pyrazin-1-one] | < 1000 nM

From US8404692B2, “Pyrimidin-4-yl-3, 4-dihydro-2H-pyrrolo [1,2A] pyrazin-1-one compounds” (Cyclacel Limited, priority 2005, dated 2013)
